# From patent US20090239846A1, “Novel Compounds” (Glaxo Group Limited, priority 2005, published 2009)
# pIC50: −log10 of the molar value. Counter-ions that a name gives are not always drawn. Like-named read-outs stand apart in the source and are kept apart here.
# What was measured:
# [1] = system: influx of neutrophils to the lung in LPS-challenged rats; experiment: Rat LPS neutrophilia model; type: in vivo; conditions: LPS aerosol, lavage 4 hours later, in at least one of the range of conditions tested, significance p<0.05
# How it was run: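 Rats pretreated 15 min–24 h with compound or vehicle, given intratracheally (200 ul, isoflurane anaesthesia) as suspension in various vehicles, then exposed to LPS aerosol (100 ug/ml) 15 min. BAL 4 h later; Diffquick-stained differential counts give % inhibition of neutrophils versus no-compound controls at a set concentration and pretreatment time.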
# Recombinant human p38α = molecular target: T1, Recombinant human p38α (Homo sapiens, UniProt Q16539); experiment: Fluorescence anisotropy kinase binding assay (standard or low volume); conditions: 12 nM p38α, 5 nM fluorescent ligand
# T1 construct: GST; made in house
# T1 sequence (Q16539 whole entry): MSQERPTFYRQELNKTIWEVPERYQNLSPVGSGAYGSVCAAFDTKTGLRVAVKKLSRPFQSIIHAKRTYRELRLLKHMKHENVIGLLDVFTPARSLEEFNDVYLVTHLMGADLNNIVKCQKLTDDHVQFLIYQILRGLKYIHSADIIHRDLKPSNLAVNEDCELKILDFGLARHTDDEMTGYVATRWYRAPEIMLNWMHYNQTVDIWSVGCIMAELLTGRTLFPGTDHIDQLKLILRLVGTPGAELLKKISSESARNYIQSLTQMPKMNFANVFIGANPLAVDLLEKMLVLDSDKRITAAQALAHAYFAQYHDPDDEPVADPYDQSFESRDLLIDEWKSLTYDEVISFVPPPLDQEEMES
# From the text: (§1) The concentration of kinase enzyme should preferably be >2×Kf. The concentration of fluorescent ligand required will depend on the instrumentation used, and the fluorescent and physicochemical properties. The concentration used must be lower than the concentration of kinase enzyme, and preferably less than half the kinase enzyme concentration.
# The fluorescent ligand is the following compound:
# [drawing 329] • which is derived from 5-[2-(4-aminomethylphenyl)-5-pyridin-4-yl-1H-imidazol-4-yl]-2-chlorophenol and rhodamine green. Recombinant human p38α was expressed as a GST-tagged protein. To activate this protein, 3.5 μM unactivated p38α was incubated in 50 mM Tris-HCl pH 7.5, 0.1 mM EGTA, 0.1% 2-mercaptoethanol, 0.1 mM sodium vanadate, 10 mM MgAc, 0.1 mM ATP with 200 nM MBP-MKK6 DD at 30 degrees for 30 mins. Following activation p38α was re-purified and the activity assessed using a standard filter-binding assay. Protocol: All components are dissolved in buffer of composition 62.5 mM HEPES, pH 7.5, 1.25 mM CHAPS, 1 mM DTT, 12.5 mM MgCl2 with final concentrations of 12 nM p38α and 5 nM fluorescent ligand. 30 μl of this reaction mixture is added to wells containing 1 μl of various concentrations of test compound (0.28 nM-16.6 μM final) or DMSO vehicle (3% final) in NUNC 384 well black microtitre plate and equilibrated for 30-60 mins at room temperature. Fluorescence anisotropy is read in Molecular Devices Acquest (excitation 485 nm/emission 535 nm). Definitions: Ki=dissociation constant for inhibitor binding • Kf=dissociation constant for fluorescent ligand binding
# as §1, with “2×Kf.” for “>2×Kf.”, “concentration. The fluorescent ligand is the following compound:” for “concentration.”
# which is derived from 5-[2-(4-aminomethylphenyl)-5-pyridin-4-yl-1H-imidazol-4-yl]-2-chlorophenol and rhodamine green. Recombinant human p38α was expressed as a GST-tagged protein. To activate this protein, 3.5 μM unactivated p38α was incubated in 50 mM Tris-HCl pH 7.5, 0.1 mM EGTA, 0.1% 2-mercaptoethanol, 0.1 mM sodium vanadate, 10 mM MgAc, 0.1 mM ATP with 200 nM MBP-MKK6 DD at 30 degrees for 30 mins. Following activation p38α was re-purified and the activity assessed using a standard filter-binding assay. Protocol: All components are dissolved in buffer of composition 62.5 mM HEPES, pH 7.5, 1.25 mM CHAPS, 1 mM DTT, 12.5 mM MgCl2 with final concentrations of 12 nM p38α and 5 nM fluorescent ligand. […] of this reaction mixture is added to wells containing 0.1 μl of various concentrations of test compound (0.02 nM-25 μM final) or DMSO vehicle (1.7% final) in Greiner low volume 384 well black microtitre plate and equilibrated for 30-60 mins at room temperature. Fluorescence anisotropy is read in Molecular Devices Acquest (excitation 485 nm/emission 535 nm). Definitions: Ki dissociation constant for inhibitor binding • Kf=dissociation constant for fluorescent ligand binding It is noted that there are two assay formats shown above for the Fluorescence anisotropy kinase binding assay. The only difference between these two assays is the volume used and the plate type. […] The results described herein may have been performed in either assay format and are not differentiated as to which.
# [2] = system: IL-8 production by human neutrophils; experiment: TNF-stimulated IL-8 production from human neutrophils; type: cell-based; conditions: Neutrophil, bound, read-out: IC50
# [3] = not more than 50% inhibition at 100 nM
SMILES,"pIC50 [2, 3]",pIC50 ([2]; screened at a different top concentration),inhibition of neutrophilia [1],"active in the assay (pIC50, p38α binding) (Recombinant human p38α)"
"Cc1ccc(C(=O)Nc2ccc(F)cc2)cc1-c1nc(NCCN(C)C)nc2c1CNC(=O)N2c1c(F)cccc1F [8(c), 3-(8-(2,6-difluorophenyl)-2-{[2-(dimethylamino)ethyl]amino}-7-oxo-5,6,7,8-tetrahydropyrimido[4,5-d]-pyrimidin-4-yl)-N-(4-fluorophenyl)-4-methylbenzamide]",,,statistically significant inhibition of neutrophilia,active
"CSc1nc(-c2cc(NC(=O)c3ccc(C)c(F)c3)ccc2C)c2c(n1)N(c1c(F)cccc1F)C(=O)NC2 [23(c), N-{3-[8-(2,6-difluorophenyl)-2-(methylthio)-7-oxo-5,6,7,8-tetrahydropyrimido[4,5-d]pyrimidin-4-yl]-4-methylphenyl}-3-fluoro-4-methylbenzamide]",,,inactive,active
"CCCNC(=O)c1ccc(C)c(-c2nc(NCCCN(CC)CC)nc3c2CNC(=O)N3c2c(F)cccc2F)c1 [29(c), 3-[2-{[3-(diethylamino)propyl]amino}-8-(2,6-difluorophenyl)-7-oxo-5,6,7,8-tetrahydropyrimido[4,5-d]pyrimidin-4-yl]-4-methyl-N-propylbenzamide]",,,statistically significant inhibition of neutrophilia,active
"Cc1ccc(C(=O)NC(C)C)cc1-c1nc(N(C)CCCN(C)C)nc2c1CNC(=O)N2c1c(F)cccc1F [34(d), 3-{8-(2,6-difluorophenyl)-2-[[3-(dimethylamino)propyl](methyl)amino]-7-oxo-5,6,7,8-tetrahydropyrimido[4,5-d]pyrimidin-4-yl}-4-methyl-N-(1-methylethyl)benzamide]",,,statistically nonsignificant inhibition of neutrophilia,active
"Cc1ccc(C(=O)Nc2ccc(F)cc2)cc1-c1nc(N2CCC(N3CCCC3)CC2)nc2c1CNC(=O)N2c1c(F)cccc1F [86(c), 3-{8-(2,6-difluorophenyl)-7-oxo-2-[4-(1-pyrrolidinyl)-1-piperidinyl]-5,6,7,8-tetrahydropyrimido[4,5-d]pyrimidin-4-yl}-N-(4-fluorophenyl)-4-methylbenzamide]",,,statistically nonsignificant inhibition of neutrophilia,active
"Cc1ccc(C(=O)Nc2ccc(F)cc2)cc1-c1nc(N2CCC(N3CCCCC3)CC2)nc2c1CNC(=O)N2c1c(F)cccc1F [87(b), 3-[2-(1,4′-bipiperidin-1′-yl)-8-(2,6-difluorophenyl)-7-oxo-5,6,7,8-tetrahydropyrimido[4,5-d]pyrimidin-4-yl]-N-(4-fluorophenyl)-4-methylbenzamide]",,,statistically nonsignificant inhibition of neutrophilia,active
"Cc1ccc(C(=O)Nc2nccs2)cc1-c1nc(NCCN(C)C)nc2c1CNC(=O)N2c1c(F)cccc1F [118(c), 3-(8-(2,6-difluorophenyl)-2-{[2-(dimethylamino)ethyl]amino}-7-oxo-5,6,7,8-tetrahydropyrimido[4,5-d]pyrimidin-4-yl)-4-methyl-N-1,3-thiazol-2-ylbenzamide]",,,statistically significant inhibition of neutrophilia,active
"Cc1ccc(C(=O)Nc2ccc(F)cc2)cc1-c1nc(N(C)CCN(C)C)nc2c1CNC(=O)N2c1c(F)cccc1F [Example 32, 3-{8-(2,6-difluorophenyl)-2-[[2-(dimethylamino)ethyl](methyl)amino]-7-oxo-5,6,7,8-tetrahydropyrimido[4,5-d]pyrimidin-4-yl}-N-(4-fluorophenyl)-4-methylbenzamide]",,,statistically nonsignificant inhibition of neutrophilia,active
"Cc1ccc(C(=O)NC(C)C)cc1-c1nc(NCCCNC(C)(C)C)nc2c1CNC(=O)N2c1c(F)cccc1F [Example 50, 3-[8-(2,6-difluorophenyl)-2-({3-[(1,1-dimethylethyl)amino]propyl}amino)-7-oxo-5,6,7,8-tetrahydropyrimido[4,5-d]pyrimidin-4-yl]-4-methyl-N-(1-methylethyl)benzamide]",< 7.00,,,
"CCCNC(=O)c1ccc(C)c(-c2nc(NCCCNC(C)(C)C)nc3c2CNC(=O)N3c2c(F)cccc2F)c1 [Example 65, 3-[8-(2,6-difluorophenyl)-2-({3-[(1,1-dimethylethyl)amino]propyl}amino)-7-oxo-5,6,7,8-tetrahydropyrimido[4,5-d]pyrimidin-4-yl]-4-methyl-N-propylbenzamide]",< 7.00,,,
"Cc1ccc(C(=O)NC(C)C)cc1-c1nc(N2CCC(N3CCOCC3)CC2)nc2c1CNC(=O)N2c1c(F)cccc1F [Example 71, 3-{8-(2,6-difluorophenyl)-2-[4-(4-morpholinyl)-1-piperidinyl]-7-oxo-5,6,7,8-tetrahydropyrimido[4,5-d]pyrimidin-4-yl}-4-methyl-N-(1-methylethyl)benzamide]",,< 9.00,,

# The next lines start with results.
"pIC50 [2, 3]",pIC50 ([2]; screened at a different top concentration),SMILES,inhibition of neutrophilia [1],"active in the assay (pIC50, p38α binding) (Recombinant human p38α)"
< 7.00,,"CCN(CC)CCCNc1nc(-c2cc(C(=O)O)ccc2C)c2c(n1)N(c1c(F)cccc1F)C(=O)NC2 [228(b), 3-[2-{[3-(diethylamino)propyl]amino}-8-(2,6-difluorophenyl)-7-oxo-5,6,7,8-tetrahydropyrimido[4,5-d]pyrimidin-4-yl]-4-methylbenzoic acid]",,
< 7.00,,"CCCNC(=O)c1ccc(C)c(-c2nc(NCCCNCC)nc3c2CNC(=O)N3c2c(F)cccc2F)c1 [230(b), 3-(8-(2,6-difluorophenyl)-2-{[3-(ethylamino)propyl]amino}-7-oxo-5,6,7,8-tetrahydropyrimido[4,5-d]pyrimidin-4-yl)-4-methyl-N-propylbenzamide trifluoroacetate]",,
< 7.00,,"Cc1ccc(C(=O)NC(C)C)cc1-c1nc(NCCCNC(C)C)nc2c1CNC(=O)N2c1c(F)cccc1F [Example 49, 3-[8-(2,6-difluorophenyl)-2-({3-[(1-methylethyl)amino]propyl}amino)-7-oxo-5,6,7,8-tetrahydropyrimido[4,5-d]pyrimidin-4-yl]-4-methyl-N-(1-methylethyl)benzamide]",,
< 7.00,,"CCCNC(=O)c1ccc(C)c(-c2nc(NCCNC(C)C)nc3c2CNC(=O)N3c2c(F)cccc2F)c1 [Example 62, 3-[8-(2,6-difluorophenyl)-2-({2-[(1-methylethyl)amino]ethyl}amino)-7-oxo-5,6,7,8-tetrahydropyrimido[4,5-d]pyrimidin-4-yl]-4-methyl-N-propylbenzamide]",,
< 7.00,,"CN(C)CCNc1nc(-c2cccc(C(=O)N(C)C)c2)c2c(n1)N(c1c(F)cccc1F)C(=O)NC2 [Example 90, 3-(8-(2,6-difluorophenyl)-2-{[2-(dimethylamino)ethyl]amino}-7-oxo-5,6,7,8-tetrahydropyrimido[4,5-d]pyrimidin-4-yl)-N,N-dimethylbenzamide]",,
< 7.00,,"CNC(=O)c1ccc(-c2nc(NCCN(C)C)nc3c2CNC(=O)N3c2c(F)cccc2F)c(C)c1 [Example 109, 4-(8-(2,6-difluorophenyl)-2-{[2-(dimethylamino)ethyl]amino}-7-oxo-5,6,7,8-tetrahydropyrimido[4,5-d]pyrimidin-4-yl)-N,3-dimethylbenzamide trifluoroacetate]",,
